ChEMBL document CHEMBL3132769, “Fragment growing to retain or alter the selectivity of anchored kinase hinge-binding fragments” (Medchemcomm, 2014)

Assays:
[1] = target: Fibroblast growth factor receptor 3 (Homo sapiens) (UniProt P22607); assay: Inhibition of human FGFR3 catalytic domain expressed in baculovirus assessed as substrate phosphorylation using fluorescence-labelled peptides as substrate at 420 uM after 90 mins by microfluidic peptide phosphorylation assay
[2] = target: Vascular endothelial growth factor receptor 2 (Homo sapiens) (UniProt P35968); assay: Inhibition of human KDR cytoplasmic domain expressed in baculovirus assessed as substrate phosphorylation using fluorescence-labelled peptides as substrate at 9 uM after 90 mins by microfluidic peptide phosphorylation assay
[3] = target: Protein kinase C beta type (Homo sapiens) (UniProt P05771); assay: Inhibition of human truncated PKC beta1 expressed in baculovirus assessed as substrate phosphorylation using fluorescence-labelled peptides as substrate at 2 uM after 90 mins by microfluidic peptide phosphorylation assay
[4] = target: RAC-alpha serine/threonine-protein kinase (Homo sapiens) (UniProt P31749); assay: Inhibition of human AKT1 catalytic domain expressed in baculovirus assessed as substrate phosphorylation using fluorescence-labelled peptides as substrate at 2 uM after 90 mins by microfluidic peptide phosphorylation assay
[5] = target: Rho-associated protein kinase 2 (Homo sapiens) (UniProt O75116); assay: Inhibition of human ROCK2 catalytic domain expressed in baculovirus assessed as substrate phosphorylation using fluorescence-labelled peptides as substrate at 2 uM after 90 mins by microfluidic peptide phosphorylation assay
[6] = target: Hepatocyte growth factor receptor (Homo sapiens) (UniProt P08581); conditions: 0.1 uM
Description: Inhibition of human MET cytoplasmic domain expressed in baculovirus assessed as substrate phosphorylation using fluorescence-labelled peptides as substrate at 0.1 uM after 90 mins by microfluidic peptide phosphorylation assay

[7] = target: T1, Serine/threonine-protein kinase BRSK1 (Homo sapiens) (UniProt Q8TDC3); assay: Inhibition of human full length BRSK1 expressed in baculovirus assessed as substrate phosphorylation using fluorescence-labelled peptides as substrate at 95 uM after 90 mins by microfluidic peptide phosphorylation assay
T1 sequence (whole entry): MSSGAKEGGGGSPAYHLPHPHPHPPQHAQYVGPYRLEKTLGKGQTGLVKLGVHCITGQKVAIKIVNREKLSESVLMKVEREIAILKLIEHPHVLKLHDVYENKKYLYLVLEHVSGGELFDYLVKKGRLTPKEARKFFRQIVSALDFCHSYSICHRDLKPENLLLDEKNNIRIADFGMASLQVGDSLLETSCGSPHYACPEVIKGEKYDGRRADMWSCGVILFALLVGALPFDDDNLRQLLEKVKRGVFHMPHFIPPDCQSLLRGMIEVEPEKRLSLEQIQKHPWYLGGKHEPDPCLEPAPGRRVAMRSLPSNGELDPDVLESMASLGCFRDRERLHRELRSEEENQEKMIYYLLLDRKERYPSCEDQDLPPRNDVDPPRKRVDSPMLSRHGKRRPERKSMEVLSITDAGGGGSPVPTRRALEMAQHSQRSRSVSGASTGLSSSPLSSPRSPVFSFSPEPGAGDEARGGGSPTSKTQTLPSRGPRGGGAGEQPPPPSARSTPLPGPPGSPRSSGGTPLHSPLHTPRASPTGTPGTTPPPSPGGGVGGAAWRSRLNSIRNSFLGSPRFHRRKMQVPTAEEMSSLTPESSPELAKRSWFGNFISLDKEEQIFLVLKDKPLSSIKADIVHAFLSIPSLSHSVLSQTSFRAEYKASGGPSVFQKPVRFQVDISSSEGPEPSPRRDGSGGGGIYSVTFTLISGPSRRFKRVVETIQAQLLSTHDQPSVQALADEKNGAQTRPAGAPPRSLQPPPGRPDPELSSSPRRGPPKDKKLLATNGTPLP

[8] = target: T2, cGMP-dependent protein kinase 1 (Homo sapiens) (UniProt Q13976); assay: Inhibition of human full length PKG-1a expressed in baculovirus assessed as substrate phosphorylation using fluorescence-labelled peptides as substrate at 0.06 uM after 90 mins by microfluidic peptide phosphorylation assay
T2 sequence (whole entry): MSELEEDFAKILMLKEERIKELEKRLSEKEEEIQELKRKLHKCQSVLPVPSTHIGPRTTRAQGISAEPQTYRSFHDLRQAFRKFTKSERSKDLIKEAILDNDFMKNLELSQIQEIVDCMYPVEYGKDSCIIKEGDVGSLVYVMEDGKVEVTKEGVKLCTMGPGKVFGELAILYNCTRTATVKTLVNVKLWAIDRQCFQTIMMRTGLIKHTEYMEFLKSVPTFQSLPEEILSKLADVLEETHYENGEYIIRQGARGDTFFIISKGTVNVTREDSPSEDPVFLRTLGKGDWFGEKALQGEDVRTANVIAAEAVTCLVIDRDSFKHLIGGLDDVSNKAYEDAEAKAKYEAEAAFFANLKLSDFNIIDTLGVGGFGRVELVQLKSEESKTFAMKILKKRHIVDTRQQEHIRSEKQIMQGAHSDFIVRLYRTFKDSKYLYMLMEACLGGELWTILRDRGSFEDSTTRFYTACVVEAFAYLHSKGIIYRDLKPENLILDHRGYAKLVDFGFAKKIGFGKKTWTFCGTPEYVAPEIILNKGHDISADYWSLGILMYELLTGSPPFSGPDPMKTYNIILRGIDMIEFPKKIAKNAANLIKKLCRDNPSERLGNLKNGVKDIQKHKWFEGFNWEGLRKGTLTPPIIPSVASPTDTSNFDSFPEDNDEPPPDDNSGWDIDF

[9] = target: Protein kinase C eta type (Homo sapiens) (UniProt P24723); assay: Inhibition of human truncated PKC eta expressed in baculovirus assessed as substrate phosphorylation using fluorescence-labelled peptides as substrate at 0.06 uM after 90 mins by microfluidic peptide phosphorylation assay
[10] = system: Tyrosine-protein kinase ABL1 (Homo sapiens), P00519 [Q252H]; assay: Inhibition of human truncated ABL Q252H mutant expressed in baculovirus assessed as substrate phosphorylation using fluorescence-labelled peptides as substrate at 70 uM after 90 mins by microfluidic peptide phosphorylation assay
[11] = target: T3, Aurora kinase A (Homo sapiens) (UniProt O14965); assay: Inhibition of human full length AurA expressed in baculovirus assessed as substrate phosphorylation using fluorescence-labelled peptides as substrate at 70 uM after 90 mins by microfluidic peptide phosphorylation assay
T3 sequence (whole entry): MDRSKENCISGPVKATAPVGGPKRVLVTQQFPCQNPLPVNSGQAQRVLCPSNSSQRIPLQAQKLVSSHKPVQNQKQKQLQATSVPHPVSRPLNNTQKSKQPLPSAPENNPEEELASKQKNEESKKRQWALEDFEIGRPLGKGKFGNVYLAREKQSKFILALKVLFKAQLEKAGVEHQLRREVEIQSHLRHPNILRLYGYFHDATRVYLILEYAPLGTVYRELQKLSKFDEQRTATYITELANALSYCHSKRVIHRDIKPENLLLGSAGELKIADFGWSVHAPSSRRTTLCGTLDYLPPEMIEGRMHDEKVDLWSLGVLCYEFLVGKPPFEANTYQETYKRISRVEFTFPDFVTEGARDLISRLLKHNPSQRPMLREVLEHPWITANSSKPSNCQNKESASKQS

[12] = target: Protein kinase C alpha type (Homo sapiens) (UniProt P17252); assay: Inhibition of human truncated PKC alpha expressed in baculovirus assessed as substrate phosphorylation using fluorescence-labelled peptides as substrate at 70 uM after 90 mins by microfluidic peptide phosphorylation assay

Sequence of Protein kinase C beta type (Homo sapiens) (P05771 2-671 limits assumed): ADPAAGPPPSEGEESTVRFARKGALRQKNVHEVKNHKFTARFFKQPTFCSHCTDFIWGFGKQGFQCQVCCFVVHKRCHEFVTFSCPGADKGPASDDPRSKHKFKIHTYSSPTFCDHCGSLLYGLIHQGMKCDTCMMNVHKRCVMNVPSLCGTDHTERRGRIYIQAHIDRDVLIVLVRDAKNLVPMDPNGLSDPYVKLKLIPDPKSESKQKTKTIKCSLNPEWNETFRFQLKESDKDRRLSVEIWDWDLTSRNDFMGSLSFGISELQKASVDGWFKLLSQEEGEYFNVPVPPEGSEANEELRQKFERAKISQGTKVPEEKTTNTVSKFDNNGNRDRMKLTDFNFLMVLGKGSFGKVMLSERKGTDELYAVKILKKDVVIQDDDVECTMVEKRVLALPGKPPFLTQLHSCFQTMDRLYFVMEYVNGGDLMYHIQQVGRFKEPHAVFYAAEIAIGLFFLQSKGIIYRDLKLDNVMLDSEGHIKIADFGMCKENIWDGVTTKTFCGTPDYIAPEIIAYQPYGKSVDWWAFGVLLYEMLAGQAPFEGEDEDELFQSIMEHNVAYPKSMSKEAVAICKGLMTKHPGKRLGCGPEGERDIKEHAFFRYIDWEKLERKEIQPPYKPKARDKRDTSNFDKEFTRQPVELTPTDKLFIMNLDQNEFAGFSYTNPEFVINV
Sequence of Rho-associated protein kinase 2 (Homo sapiens) (O75116 whole entry, looked up, the tested form may be a part): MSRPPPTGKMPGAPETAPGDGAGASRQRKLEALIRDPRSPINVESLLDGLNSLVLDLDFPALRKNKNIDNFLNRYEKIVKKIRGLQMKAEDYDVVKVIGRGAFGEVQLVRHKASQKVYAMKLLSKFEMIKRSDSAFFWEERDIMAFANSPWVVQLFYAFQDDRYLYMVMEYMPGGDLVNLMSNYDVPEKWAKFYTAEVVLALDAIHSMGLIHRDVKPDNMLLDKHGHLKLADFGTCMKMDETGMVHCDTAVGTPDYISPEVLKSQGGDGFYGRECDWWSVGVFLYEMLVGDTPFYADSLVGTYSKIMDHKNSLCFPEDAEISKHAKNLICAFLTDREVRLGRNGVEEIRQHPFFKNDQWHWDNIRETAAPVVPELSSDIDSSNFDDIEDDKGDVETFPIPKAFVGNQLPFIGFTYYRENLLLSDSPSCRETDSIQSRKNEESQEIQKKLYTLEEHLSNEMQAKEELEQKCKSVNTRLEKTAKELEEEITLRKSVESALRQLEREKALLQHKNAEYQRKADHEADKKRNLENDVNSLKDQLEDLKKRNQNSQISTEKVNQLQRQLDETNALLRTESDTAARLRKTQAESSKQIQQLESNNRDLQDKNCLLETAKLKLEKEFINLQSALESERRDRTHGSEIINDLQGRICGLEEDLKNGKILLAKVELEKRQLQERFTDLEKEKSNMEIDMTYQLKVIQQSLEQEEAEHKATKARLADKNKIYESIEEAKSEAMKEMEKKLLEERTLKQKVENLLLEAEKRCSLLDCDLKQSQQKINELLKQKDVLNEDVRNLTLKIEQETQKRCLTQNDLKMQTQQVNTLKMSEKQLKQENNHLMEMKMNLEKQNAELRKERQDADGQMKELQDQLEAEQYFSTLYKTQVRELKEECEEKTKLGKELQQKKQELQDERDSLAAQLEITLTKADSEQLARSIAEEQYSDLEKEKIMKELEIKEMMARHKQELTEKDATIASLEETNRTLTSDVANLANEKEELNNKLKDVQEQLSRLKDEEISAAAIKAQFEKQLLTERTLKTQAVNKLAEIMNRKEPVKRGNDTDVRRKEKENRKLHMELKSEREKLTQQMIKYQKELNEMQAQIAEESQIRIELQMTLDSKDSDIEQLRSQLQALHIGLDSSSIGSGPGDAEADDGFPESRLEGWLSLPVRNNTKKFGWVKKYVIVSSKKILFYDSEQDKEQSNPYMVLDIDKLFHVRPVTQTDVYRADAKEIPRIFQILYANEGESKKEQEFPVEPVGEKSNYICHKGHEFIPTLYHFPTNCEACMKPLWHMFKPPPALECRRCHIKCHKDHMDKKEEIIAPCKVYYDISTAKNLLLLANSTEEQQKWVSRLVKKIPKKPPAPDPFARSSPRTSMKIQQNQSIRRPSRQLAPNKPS
Sequence of Vascular endothelial growth factor receptor 2 (Homo sapiens) (P35968 whole entry, the tested form may be a part): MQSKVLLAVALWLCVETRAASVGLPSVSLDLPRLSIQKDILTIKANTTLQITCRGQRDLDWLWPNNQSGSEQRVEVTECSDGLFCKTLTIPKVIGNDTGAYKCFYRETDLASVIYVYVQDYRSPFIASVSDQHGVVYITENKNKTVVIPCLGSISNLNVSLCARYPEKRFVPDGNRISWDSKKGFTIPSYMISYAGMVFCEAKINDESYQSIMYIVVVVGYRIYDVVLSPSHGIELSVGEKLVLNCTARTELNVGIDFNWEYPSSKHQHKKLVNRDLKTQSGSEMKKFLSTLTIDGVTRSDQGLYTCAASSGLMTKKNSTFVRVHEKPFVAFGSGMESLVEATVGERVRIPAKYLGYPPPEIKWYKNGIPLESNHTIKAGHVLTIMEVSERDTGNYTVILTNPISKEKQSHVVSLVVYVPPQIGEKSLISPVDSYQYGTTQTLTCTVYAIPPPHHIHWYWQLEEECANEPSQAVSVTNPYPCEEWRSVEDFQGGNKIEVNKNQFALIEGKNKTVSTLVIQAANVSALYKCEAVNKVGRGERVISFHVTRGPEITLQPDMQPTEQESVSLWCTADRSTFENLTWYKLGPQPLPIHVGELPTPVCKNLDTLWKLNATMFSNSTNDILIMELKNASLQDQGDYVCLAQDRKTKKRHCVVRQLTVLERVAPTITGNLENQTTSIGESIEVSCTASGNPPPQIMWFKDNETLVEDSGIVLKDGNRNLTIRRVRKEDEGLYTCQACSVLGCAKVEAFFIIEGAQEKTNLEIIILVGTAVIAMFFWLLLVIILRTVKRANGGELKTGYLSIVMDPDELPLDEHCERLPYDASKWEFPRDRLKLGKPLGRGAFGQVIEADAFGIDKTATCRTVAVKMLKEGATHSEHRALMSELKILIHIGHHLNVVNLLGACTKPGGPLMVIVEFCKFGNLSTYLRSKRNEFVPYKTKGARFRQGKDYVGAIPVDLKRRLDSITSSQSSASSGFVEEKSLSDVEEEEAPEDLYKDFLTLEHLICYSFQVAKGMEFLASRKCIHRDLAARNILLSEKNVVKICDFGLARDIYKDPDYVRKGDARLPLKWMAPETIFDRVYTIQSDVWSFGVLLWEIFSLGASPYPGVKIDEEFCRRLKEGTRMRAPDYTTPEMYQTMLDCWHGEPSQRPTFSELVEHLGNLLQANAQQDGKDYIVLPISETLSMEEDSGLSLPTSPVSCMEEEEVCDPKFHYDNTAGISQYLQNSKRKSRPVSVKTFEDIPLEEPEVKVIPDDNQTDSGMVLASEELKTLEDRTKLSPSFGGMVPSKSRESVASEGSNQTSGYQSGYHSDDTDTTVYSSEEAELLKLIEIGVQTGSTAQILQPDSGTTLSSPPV
Sequence of Hepatocyte growth factor receptor (Homo sapiens) (P08581 whole entry): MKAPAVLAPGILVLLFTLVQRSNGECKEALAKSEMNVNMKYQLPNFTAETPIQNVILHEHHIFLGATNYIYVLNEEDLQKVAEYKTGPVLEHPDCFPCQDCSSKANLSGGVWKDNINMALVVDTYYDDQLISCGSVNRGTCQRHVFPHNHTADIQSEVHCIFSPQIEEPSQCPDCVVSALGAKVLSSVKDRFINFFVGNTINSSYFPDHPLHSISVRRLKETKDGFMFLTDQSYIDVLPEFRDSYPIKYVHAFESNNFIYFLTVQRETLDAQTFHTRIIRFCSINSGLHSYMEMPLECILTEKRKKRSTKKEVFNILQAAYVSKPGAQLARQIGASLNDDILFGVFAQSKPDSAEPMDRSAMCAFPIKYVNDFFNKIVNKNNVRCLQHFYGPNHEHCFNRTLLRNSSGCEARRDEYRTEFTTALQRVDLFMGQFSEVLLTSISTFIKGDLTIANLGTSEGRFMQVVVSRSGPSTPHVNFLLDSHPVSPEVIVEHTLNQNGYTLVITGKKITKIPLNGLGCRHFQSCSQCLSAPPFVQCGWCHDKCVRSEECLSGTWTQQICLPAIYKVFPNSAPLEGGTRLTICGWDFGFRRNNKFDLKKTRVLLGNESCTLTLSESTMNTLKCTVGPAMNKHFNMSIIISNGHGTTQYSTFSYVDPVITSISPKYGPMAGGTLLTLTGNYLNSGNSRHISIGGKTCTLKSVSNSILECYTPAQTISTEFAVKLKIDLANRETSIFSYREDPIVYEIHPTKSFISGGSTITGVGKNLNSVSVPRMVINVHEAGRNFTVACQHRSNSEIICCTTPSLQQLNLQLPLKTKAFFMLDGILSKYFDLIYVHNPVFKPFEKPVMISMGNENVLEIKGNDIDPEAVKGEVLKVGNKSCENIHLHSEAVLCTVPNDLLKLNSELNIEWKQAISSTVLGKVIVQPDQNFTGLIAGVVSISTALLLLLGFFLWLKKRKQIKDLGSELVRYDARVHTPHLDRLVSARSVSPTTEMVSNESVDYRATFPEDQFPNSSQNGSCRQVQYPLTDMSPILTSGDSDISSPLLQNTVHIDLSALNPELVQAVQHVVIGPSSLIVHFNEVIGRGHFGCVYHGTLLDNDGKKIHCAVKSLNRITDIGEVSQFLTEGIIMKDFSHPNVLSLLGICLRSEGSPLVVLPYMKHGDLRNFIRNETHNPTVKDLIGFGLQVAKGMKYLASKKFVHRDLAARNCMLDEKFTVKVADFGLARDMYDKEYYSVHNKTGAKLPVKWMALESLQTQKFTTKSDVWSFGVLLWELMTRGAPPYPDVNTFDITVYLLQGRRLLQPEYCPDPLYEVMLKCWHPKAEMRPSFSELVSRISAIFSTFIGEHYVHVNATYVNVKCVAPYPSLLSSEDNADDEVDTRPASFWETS

c1nc(N2CCOCC2)c2nc[nH]c2n1
inhibition [1]: 95%

NCC1CN(c2ncnc3[nH]c4cnccc4c23)CCO1 (configuration not stated)
inhibition [2]: 63.5%

NC1CCN(c2ncnc3[nH]ccc23)CC1
inhibition [3]: 16.5%
inhibition [4]: 83%
inhibition [5]: 44%

C[C@H](CN(C)C)Oc1nc(Nc2cc3cccc(Cl)c3cn2)cnc1C#N
inhibition [6]: 0%

NCCc1ccc(-c2ncnc3[nH]cnc23)cc1
inhibition [7]: 44%

NC1(Cc2ccc(Cl)cc2)CCN(c2ncnc3[nH]ccc23)CC1
inhibition [8]: 0%
inhibition [9]: 51%

CNCc1ccc(-c2ncnc3[nH]cnc23)cc1
inhibition [10]: 39%
inhibition [11]: 68%
inhibition [12]: 56%
